These results are taken from patent publication US7368457B2, “Bridged N-arylsulfonylpiperidines as gamma-secretase inhibitors” (Schering Corporation, priority 2003, dated 2008).

Broadly, the IC50 is the concentration needed to halve the response being measured.

For one experiment, the target named is T1, gamma secretase (Homo sapiens, UniProt P49768).
T1 construct: endogenous in cells; host or cells: Membranes of 293 T-REx cells, clone pTRE.15; The enzyme is endogenous; only the substrate SPC99-Lon is transfected
Briefly: Gamma secretase activity in membranes of 293 cells expressing C99 (SPC99-Lon), Aβ 40 / Aβ 42 ECL immunoassay. The experiment is classed as biochemical.
Settings: not given
The source says:
Reagents. Antibodies WO2, G2-10, and G2-11 were obtained from Dr. Konrad Beyreuther (University of Heidelberg, Heidelberg, Germany). WO2 recognizes residues 5-8 of Aβ peptide, while G2-10 and G2-11 recognize the specific C-terminal structure of Aβ 40 and Aβ 42, respectively. Biotin-4G8 was purchased from Senetec (St. Louis, Mo.). All tissue culture reagents used in this work were from Life Technologies, Inc., unless otherwise specified. Pepstatin A was purchased from Roche Molecular Biochemicals; DFK167 was from Enzyme Systems Products (Livermore, Calif.).
cDNA Constructs, Tissue Culture, and Cell Line Construction. […] Upon insertion into the membrane, the 17 amino acid signal peptide is processed, leaving an additional leucine at the N-terminus of Aβ SPC99-Ion was cloned into the pcDNA4/TO vector (Invitrogen) and transfected into 293 cells stably transfected with pcDNA6/TR, which is provided in the T-REx system (Invitrogen). The transfected cells were selected in Dulbecco's modified Eagle's media (DMEM) supplemented with 10% fetal bovine serum, 100 units/mL penicillin, 100 µg/mL streptomycin, 250 µg/mL zeocin, and 5 µg/mL blasticidin (Invitrogen). Colonies were screened for Aβ production by inducing C99 expression with […] tetracycline for 16-20 h and analyzing conditioned media with a sandwich immunoassay (see below). One of the clones, designated as pTRE.15, was used in these studies.
Membrane Preparation. C99 expression in cells was induced with […] tetracycline for 20 h. The cells were pretreated with […] 12-myristate 13-acetate (PMA) and […] brefeldin A (BFA) for 5-6 h at 37 C before harvesting. The cells were washed 3 times with cold phosphate-buffered saline (PBS) and harvested in buffer A containing 20 mM Hepes (pH 7.5), 250 mM sucrose, 50 mM KCl, 2 mM EDTA, 2 mM EGTA, and Complete protease inhibitor tablets (Roche Molecular Biochemicals). The cell pellets were flash-frozen in liquid nitrogen and stored at −70 C before use.
To make membranes, the cells were resuspended in buffer A and lysed in a nitrogen bomb at 600 psi. The cell lysate was centrifuged at 1500 g for 10 min to remove nuclei and large cell debris. The supernatant was centrifuged at 100000 g for 1 h. The membrane pellet was resuspended in buffer A plus 0.5 M NaCl, and the membranes were collected by centrifugation at 200000 g for 1 h. The salt-washed membrane pellet was washed again in buffer A and centrifuged at 100000 g for 1 h. The final membrane pellet was resuspended in a small volume of buffer A using a Teflon-glass homogenizer. The protein concentration was determined, and membrane aliquots were flash-frozen in liquid nitrogen and stored at −70° C.
γ-Secretase Reaction and Aβ Analysis. To measure γ-secretase activity, membranes were incubated at 37° C. for 1 h in 50 μL of buffer containing 20 mM Hepes (pH 7.0) and 2 mM EDTA. At the end of the incubation, Aβ 40 and Aβ 42 were measured using an electrochemiluminescence (ECL)-based immunoassay. Aβ 40 was identified with antibody pairs TAG-G2-10 and biotin-WO2, while Aβ 42 was identified with TAG-G2-11 and biotin-4G8. The ECL signal was measured using an ECL-M8 instrument (IGEN International, Inc.) according to the manufacturer's instructions. The data presented were the means of the duplicate or triplicate measurements in each experiment.
Regarding `O=C(O[C@H]1CCC2CCCC1N2S(=O)(=O)c1ccc(Cl)cc1)N1CCC(N2CCCCC2)CC1` (stereo partly shown) [Example 16], the IC50 was about 16 nM. For the compound `O=C(O[C@@H]1CCC2CCCC1N2S(=O)(=O)c1ccc(Cl)cc1)N1CCC(N2CCCCC2)CC1` (stereo partly shown) [Example 15], the IC50 was 1000 to 10000 nM.

The experiment is the same for the next values; noted with them: gamma secretase membrane assay; ranges given as 'about 0.1 to about 1.0 μM' and 'about 1 to about 10 μM'; read-out: IC50.
As for `CN1CCN(C(=O)O[C@H]2CCC3CCCC2N3S(=O)(=O)c2ccc(Cl)cc2)CC1` (stereo partly shown) [Example 26], the IC50 is 100 to 1000 nM.

Take `CCN1CCN(C(=O)OC2C[C@H]3CCC2N3S(=O)(=O)c2ccc(Cl)cc2)CC1` (stereo partly shown) [Example 37]: the IC50 was in the range of 1000 to 10000 nM. `O=C(O[C@H]1CCC2CCC1N2S(=O)(=O)c1ccc(Cl)cc1)N1CCC(N2CCCCC2)CC1` (stereo partly shown) [Example 43]: the IC50 lay in the range of 100 to 1000 nM. Regarding `CCN(Cc1ccncc1)C(=O)O[C@H]1CCC2CCCC1N2S(=O)(=O)c1ccc(Cl)cc1` (stereo partly shown) [Example 29], the IC50 lay in the range of 100 to 1000 nM. For `CC(C)N1CCN(C(=O)O[C@H]2CCC3CCCC2N3S(=O)(=O)c2ccc(Cl)cc2)CC1` (stereo partly shown) [Example 21], the IC50 lay in the range of 100 to 1000 nM.

Turning to `O=C(O[C@H]1CCC2CCCC1N2S(=O)(=O)c1ccc(Cl)cc1)N1CCC(O)(c2ccc(Cl)cc2)CC1` (stereo partly shown) [Example 24], the IC50 fell in the range of 100 to 1000 nM. In the case of `O=C(O[C@@H]1C=CC2CCCC1N2S(=O)(=O)c1ccc(Cl)cc1)N1CCC(N2CCCCC2)CC1` (stereo partly shown) [Example 34], the IC50 fell in the range of 100 to 1000 nM. Take `CCN(CC)C(=O)C1CCCN(C(=O)O[C@H]2CCC3CCCC2N3S(=O)(=O)c2ccc(Cl)cc2)C1` (stereo partly shown) [Example 25]: the 50% inhibitory concentration (IC50) fell in the range of 100 to 1000 nM.

With `O=C(O[C@H]1CCC2CCCC1N2S(=O)(=O)c1ccc(Cl)cc1)N1CCN(CCCO)CC1` (stereo partly shown) [Example 22], the IC50 lay in the range of 100 to 1000 nM. On to `CC(C)N1CCN(C(=O)OC2C[C@H]3CCC2N3S(=O)(=O)c2ccc(Cl)cc2)CC1` (stereo partly shown) [Example 40], for which the IC50 lay within 1000 to 10000 nM. Take `O=C(O[C@H]1CCC2CCCC1N2S(=O)(=O)c1ccc(Cl)cc1)N1CCN(CCO)CC1` (stereo partly shown) [Example 14]: the 50% inhibitory concentration (IC50) lay within 100 to 1000 nM. `O=C(O[C@H]1CCC2CCCC1N2S(=O)(=O)c1ccc(Cl)cc1)N1CCN(c2ccccc2)CC1` (stereo partly shown) [Example 23]: the IC50 fell in the range of 100 to 1000 nM. Consider `O=C(OC1CC2CCC1N2S(=O)(=O)c1ccc(Cl)cc1)N1CCC(N2CCCCC2)CC1` (stereo not shown) [Example 35], for which the IC50 lay in the range of 1000 to 10000 nM. With `O=C(O[C@H]1CCC2CCCC1N2S(=O)(=O)c1ccc(Cl)cc1)N1CCN(CC2CC2)CC1` (stereo partly shown) [Example 17], the IC50 lay in the range of 100 to 1000 nM. Turning to `O=C(OC1C[C@H]2CCC1N2S(=O)(=O)c1ccc(Cl)cc1)N1CCN(C2CCCCC2)CC1` (stereo partly shown) [Example 36], the IC50 fell in the range of 1000 to 10000 nM. In the case of `O=C(O[C@H]1CCC2CCCC1N2S(=O)(=O)c1ccc(Cl)cc1)N1CCC[C@H]1CO` (stereo partly shown) [Example 28], the half-maximal inhibitory concentration (IC50) fell in the range of 100 to 1000 nM. Turning to `COC(=O)C1CCN(C(=O)O[C@H]2CCC3CCCC2N3S(=O)(=O)c2ccc(Cl)cc2)CC1` (stereo partly shown) [Example 27], the IC50 was 100 to 1000 nM.
